Measurements: publication PMC11091976, “Shorter Peptide Nucleic Acid Probes Improve Affibody-Mediated Peptide Nucleic Acid-Based Pretargeting” (ACS Pharmacology & Translational Science, 2024)

Key:
SKOV-3 xenografts = test: Biodistribution with preinjection of primary agent (pretargeting); parameters: species or system BALB/C nu/nu mice; settings: mouse, in vivo
From the text: Biodistribution measurements of all radiolabeled PNA-based probes indicated rapid clearance from the blood as well as from other organs and tissues, which is a crucial requirement for the success of in vivo pretargeting strategies.
Animal studies were planned in agreement with EU Directive 2010/63/EU for animal experiments and Swedish national legislation concerning the protection of laboratory animals and were approved by the Ethics Committee for Animal Research in Uppsala, Sweden (animal permission C4/16). HER2-positive xenografts were implanted by subcutaneous injection of 10^7 SKOV-3 cells in the right hind legs of female BALB/C nu/nu mice. Three weeks after implantation, mice were randomized into 8 groups, with 4 mice in each group. At the time of the experiment, the average animal weight was 20 ± 1 g. The average tumor weight was 0.26 ± 0.14 g. The mice were euthanized at predetermined time points by overdose of Ketamine/Xylazine anesthesia, followed by heart puncture. The organs of interest such as blood, lung, liver, spleen, kidney, muscle, bone, and tumor were collected, weighed, and subsequently their radioactivity was measured. Organs and tumor uptake were calculated as the percentage of the injected dose per gram of the sample (%ID/g). […]

HP9 = test: UV melting of PNA:PNA duplex with primary probe HP9; type: physicochemical; settings: UV 260 nm, 20-95 °C at 1 °C/min, 5 μM each probe, 10 mM phosphate buffer, 10 mM KCl, pH 7.4
Protocol: The melting temperatures of secondary probes after duplex formation with primary probes were also measured by monitoring the absorbance at 260 nm as a function of temperature (see Figure S23). All probe pairs had melting temperatures well above 37 °C (body temperature) and ranged from 51 °C for the HP6:HP19 pair with 6 complementary bases to 82 °C for the previously studied HP15:HP18 pair with 15 complementary bases (see Figure 3B and Table 2). […] This secondary structure is typically adopted by antiparallel and L-amino acid-modified PNA–PNA duplexes at neutral pH.[49]
Figure S23: Normalized temperature melting profiles from 20–95°C for different primary and secondary probe pairs. UV melting curves at 260 nm. (A) HP15 (15-mer) toward secondary 15-, 12- and 9-mers. (B) HP12 (12-mer) toward secondary 12-, 9-, 8-, 7- and 6-mers. (C) HP9 (9-mer) toward secondary 9-, 8-, 7- and 6-mers. (D) HP6 (6-mer) toward secondary 6-mer.
Concentrations of duplexes in A–D are 5 μM in 10 mM […] with 10 mM KCl at pH 7.4.
(also on this page, place not known: Fraction melted Fraction meltedFraction melted Fraction melted) […]
Supplementary Material and methods […]
Biophysical characterization of PNA:PNA duplexes using CD Spectroscopy and […]
Circular dichroism (CD) and UV melts of PNA:PNA duplexes were measured on a CD spectrometer (Applied Photophysics, Leatherhead, UK) with Peltier temperature control and an external temperature probe. RP-HPLC purified and lyophilized PNA probes were dissolved in 10 mM phosphate buffer with 10 mM KCl at pH 7.4. Samples contained both primary and complementary secondary PNA probes at a final concentration of 5 µM for each probe. These samples were initially heated to 95°C for five minutes, allowed to cool to room temperature, and then transferred to a quartz cuvette with a 1.0 cm path length. A temperature probe was inserted into the solution through the cuvette's rubber cap. […]
from 20°C to 95°C with a 1°C/min temperature gradient. Simultaneously, the UV absorbance at 260 nm was recorded as a function of temperature. Fraction melted data was calculated […]
Fraction melted = 1 ― UVds― UVss , where UVss and UVds are the UV absorbances at 95°C and 20°C, respectively. The melting temperature (Tm) was determined as the maximum of the first derivative of the melting curve and was computed using the Global 3 analysis software (Applied Photophysics, […]
CD spectra in the range of 200–300 nm were recorded for all hybridized PNA:PNA pairs at 20°C before and after the UV melting experiments. All CD spectra were baseline subtracted and presented as an average of five scans.

Z-HP12 = test: SPR off-rate screening (single-cycle kinetics), immobilized Z-HP12; type: binding; settings: primary probe HP12 (immobilized Z-HP12), 25 °C, PBS-T pH 7.4, 120 nM HP16/HP20 or 362 nM HP21/HP19, dissociation 150 min, 1:1 model, duplicates
Protocol: The stability of new pretargeting probe combinations was assessed using SPR, and duplex melting temperatures were measured with UV–vis spectroscopy. In SPR, a high concentration of the secondary probe was injected over immobilized primary agents, and the dissociation of the hybridized complexes was monitored over 150 min (see Figures 3A, S22, and Table 2).
We utilized SPR on a Biacore T200 instrument (Cytiva) to examine how secondary PNA probes (6-mer HP19, 7-mer HP21, 8-mer HP20, and 9-mer HP16) bind to primary agents. These experiments were conducted using dextran-coated CM5 sensor chips and PBS-T buffer at pH 7.4. The ligands were immobilized through a standard EDC/NHS coupling method, and the chip surface was sealed with ethanolamine. A reference surface with no primary agent was also included.
For ranking the off-rate (kd) of the secondary probes, we employed single-cycle kinetics (SCK) at 25 °C with a flow rate of 50 μL/min. […] Secondary PNA probes were injected at various concentrations, and dissociation was monitored for 10,000 s. To regenerate the chip surface, we used two 30 s injections of 10 mM glycine-HCl, pH 1.5.
All SPR experiments were performed in duplicate, and data analysis was conducted using the Biacore T200 Evaluation software version 2.0 with a 1:1 binding model.
Figure S22: Representative SPR sensorgrams of the dissociation phase of HP16 (9-mer), HP20 (8-mer), HP21 (7-mer) and HP19 […]
After injection with the secondary probe
(120 nM of HP16 and HP20 or 362 nM of HP21 and HP19) the dissociation of the formed complex was followed for 150 minutes. All experiments were done in duplicates, and the data presented is double-referenced (reference channel and buffer injection are subtracted).
(1 picture or pasted object on this page, not shown here)

Tm (HP9)	kd (Z-HP12)	Compound	tumor-associated activity (SKOV-3 xenografts)
		NC(=O)[C@H](Cc1ccc(O)cc1)NC(=O)[C@H](CCC(=O)O)NC(=O)[C@H](CCC(=O)O)NC(=O)CN(CCNC(=O)CN(CCNC(=O)CN(CCNC(=O)CN(CCNC(=O)CN(CCNC(=O)CN(CCNC(=O)CN(CCNC(=O)CN(CCNC(=O)CN(CCNC(=O)[C@H](CO)NC(=O)[C@H](CO)NC(=O)COCCOCCNC(=O)CN1CCN(CC(=O)O)CCN(CC(=O)O)CCN(CC(=O)O)CC1)C(=O)Cn1cnc2c(N)ncnc21)C(=O)Cn1cnc2c(N)ncnc21)C(=O)Cn1ccc(N)nc1=O)C(=O)Cn1cnc2c(N)ncnc21)C(=O)Cn1ccc(N)nc1=O)C(=O)Cn1ccc(N)nc1=O)C(=O)Cn1cnc2c(N)ncnc21)C(=O)Cn1cnc2c(=O)[nH]c(N)nc21)C(=O)Cn1cnc2c(=O)[nH]c(N)nc21 [[^177Lu]Lu-HP16, metal not drawn]	1.91 ± 0.831 %ID/g
65 °C	1.3 × 10^–5 s^–1	DOTA-AEEA-SS-aacaccagg-EEY-NH2 [HP16, 9-mer secondary PNA probe with DOTA]	
